Source: PMC9898036, “VIP152 is a selective CDK9 inhibitor with pre-clinical in vitro and in vivo efficacy in chronic lymphocytic leukemia” (Leukemia, 2022)

What was measured:
Test in all cases: DiscoverX KINOMEscan kinase profiling (468 assays)
Type in all cases: binding
human kinome [1] = target: human kinome (Homo sapiens, UniProt O15264); settings: read-out: Percent Control
Outline: (§1)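 DNA-tagged kinases competed for immobilized biotinylated ligands on streptavidin magnetic beads, with bound kinase quantified by qPCR. VIP152 in DMSO was tested against a DMSO control.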

human kinome [2] = target: human kinome (Homo sapiens, UniProt O43683); settings: BUB1; 100 nM; read-out: Percent Control
Outline: as §1

human kinome [3] = target: human kinome (Homo sapiens, UniProt P00533, L858R); settings: EGFR(L858R); 100 nM; read-out: Percent Control
Outline: as §1

human kinome [4] = target: human kinome (Homo sapiens, UniProt P04049); settings: read-out: Percent Control
Outline: as §1

human kinome [5] = target: human kinome (Homo sapiens, UniProt P08069); settings: IGF1R; 100 nM; read-out: Percent Control
Outline: as §1

human kinome [6] = target: human kinome (Homo sapiens, UniProt P21127); settings: CDC2L1 (Entrez CDK11B); 100 nM; read-out: Percent Control
Outline: as §1

human kinome [7] = target: human kinome (Homo sapiens, UniProt P23443); settings: kinase S6K1 (Entrez RPS6KB1); compound concentration 1000 nM; read-out: Percent Control
Outline: as §1

human kinome [8] = target: human kinome (Homo sapiens, UniProt P29317); settings: EPHA2; 100 nM; read-out: Percent Control
Outline: as §1

human kinome [9] = target: human kinome (Homo sapiens, UniProt P29320); settings: EPHA3; 100 nM; read-out: Percent Control
Outline: as §1

human kinome [10] = target: human kinome (Homo sapiens, UniProt P35916); settings: FLT4; 100 nM; read-out: Percent Control
Outline: as §1

human kinome [11] = target: human kinome (Homo sapiens, UniProt P42338); settings: read-out: Percent Control
Outline: as §1

human kinome [12] = target: human kinome (Homo sapiens, UniProt P45983); settings: JNK1 (Entrez MAPK8); 100 nM; read-out: Percent Control
Outline: as §1

human kinome [13] = target: human kinome (Homo sapiens, UniProt P46734); settings: MEK3 (Entrez MAP2K3); 100 nM; read-out: Percent Control
Outline: as §1

human kinome [14] = target: human kinome (Homo sapiens, UniProt P54753); settings: EPHB3; 100 nM; read-out: Percent Control
Outline: as §1

human kinome [15] = target: human kinome (Homo sapiens, UniProt Q04771); settings: ACVR1; 100 nM; read-out: Percent Control
Outline: as §1

human kinome [16] = target: human kinome (Homo sapiens, UniProt Q15759); settings: read-out: Percent Control
Outline: as §1

human kinome [17] = target: human kinome (Homo sapiens, UniProt Q16539); settings: read-out: Percent Control
Outline: as §1

human kinome [18] = target: human kinome (Homo sapiens, UniProt Q5VT25); settings: MRCKA (Entrez CDC42BPA); 100 nM; read-out: Percent Control
Outline: as §1

human kinome [19] = target: human kinome (Homo sapiens, UniProt Q86YV6); settings: read-out: Percent Control
Outline: as §1

human kinome [20] = target: human kinome (Homo sapiens, UniProt Q8IU85); settings: CAMK1D; 100 nM; read-out: Percent Control
Outline: as §1

human kinome [21] = target: human kinome (Homo sapiens, UniProt Q8NEB9); settings: kinase VPS34 (Entrez PIK3C3); compound concentration 1000 nM; read-out: Percent Control
Outline: as §1

human kinome [22] = target: human kinome (Homo sapiens, UniProt Q8NEV4); settings: read-out: Percent Control
Outline: as §1

human kinome [23] = target: human kinome (Homo sapiens, UniProt Q8TD08); settings: ERK8 (Entrez MAPK15); 100 nM; read-out: Percent Control
Outline: as §1

human kinome [24] = target: human kinome (Homo sapiens, UniProt Q92772); settings: CDKL2; 100 nM; read-out: Percent Control
Outline: as §1

human kinome [25] = target: human kinome (Homo sapiens, UniProt Q96PN8); settings: kinase TSSK3 (Entrez TSSK3); compound concentration 1000 nM; read-out: Percent Control
Outline: as §1

human kinome [26] = target: human kinome (Homo sapiens, UniProt Q9HC98); settings: read-out: Percent Control
Outline: as §1

human kinome [27] = target: human kinome (Homo sapiens, UniProt Q9UBE8); settings: read-out: Percent Control
Outline: as §1

human kinome [28] = target: human kinome (Homo sapiens, UniProt Q9UIK4); settings: DAPK2; 100 nM; read-out: Percent Control
Outline: as §1

human kinome [29] = target: human kinome (Homo sapiens, UniProt Q9Y6M4); settings: CSNK1G3; 100 nM; read-out: Percent Control
Outline: as §1

Chain of human kinome (Homo sapiens, UniProt P42338) (P42338 whole entry): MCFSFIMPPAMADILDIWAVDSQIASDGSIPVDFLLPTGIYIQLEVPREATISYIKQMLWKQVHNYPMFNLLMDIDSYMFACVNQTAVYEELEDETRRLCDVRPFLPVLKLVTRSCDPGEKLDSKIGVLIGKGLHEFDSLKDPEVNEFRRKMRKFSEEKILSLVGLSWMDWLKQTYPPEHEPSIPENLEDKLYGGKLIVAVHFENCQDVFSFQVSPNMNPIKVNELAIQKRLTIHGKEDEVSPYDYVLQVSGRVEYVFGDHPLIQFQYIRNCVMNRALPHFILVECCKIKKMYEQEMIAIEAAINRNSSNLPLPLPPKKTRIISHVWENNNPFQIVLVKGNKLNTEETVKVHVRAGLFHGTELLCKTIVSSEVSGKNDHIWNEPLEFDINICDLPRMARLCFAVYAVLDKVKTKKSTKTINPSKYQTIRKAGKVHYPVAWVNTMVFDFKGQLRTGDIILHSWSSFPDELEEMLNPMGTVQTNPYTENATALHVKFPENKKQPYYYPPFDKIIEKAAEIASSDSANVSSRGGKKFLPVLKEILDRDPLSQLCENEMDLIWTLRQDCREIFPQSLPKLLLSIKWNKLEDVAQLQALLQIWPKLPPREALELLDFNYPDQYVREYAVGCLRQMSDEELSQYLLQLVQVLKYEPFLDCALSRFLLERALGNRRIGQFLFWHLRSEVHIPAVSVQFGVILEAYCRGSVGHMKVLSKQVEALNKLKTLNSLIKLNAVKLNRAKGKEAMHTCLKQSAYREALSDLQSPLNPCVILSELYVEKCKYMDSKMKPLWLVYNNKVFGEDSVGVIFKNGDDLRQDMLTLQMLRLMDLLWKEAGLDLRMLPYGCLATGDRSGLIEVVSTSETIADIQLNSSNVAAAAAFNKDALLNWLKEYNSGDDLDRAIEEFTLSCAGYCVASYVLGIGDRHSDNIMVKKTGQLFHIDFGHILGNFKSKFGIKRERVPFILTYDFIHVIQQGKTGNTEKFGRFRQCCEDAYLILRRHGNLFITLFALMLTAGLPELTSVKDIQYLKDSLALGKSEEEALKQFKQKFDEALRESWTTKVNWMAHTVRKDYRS
Chain of human kinome (Homo sapiens, UniProt Q9HC98) (Q9HC98 whole entry): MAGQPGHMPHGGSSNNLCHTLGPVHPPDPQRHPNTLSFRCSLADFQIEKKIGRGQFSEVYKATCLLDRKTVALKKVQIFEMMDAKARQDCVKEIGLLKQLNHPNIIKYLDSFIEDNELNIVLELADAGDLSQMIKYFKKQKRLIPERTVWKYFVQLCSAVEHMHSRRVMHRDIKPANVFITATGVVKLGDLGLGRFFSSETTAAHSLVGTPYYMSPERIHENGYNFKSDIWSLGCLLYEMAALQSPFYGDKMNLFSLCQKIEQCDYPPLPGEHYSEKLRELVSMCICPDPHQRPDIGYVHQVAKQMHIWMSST
Chain of human kinome (Homo sapiens, UniProt Q15759) (Q15759 whole entry): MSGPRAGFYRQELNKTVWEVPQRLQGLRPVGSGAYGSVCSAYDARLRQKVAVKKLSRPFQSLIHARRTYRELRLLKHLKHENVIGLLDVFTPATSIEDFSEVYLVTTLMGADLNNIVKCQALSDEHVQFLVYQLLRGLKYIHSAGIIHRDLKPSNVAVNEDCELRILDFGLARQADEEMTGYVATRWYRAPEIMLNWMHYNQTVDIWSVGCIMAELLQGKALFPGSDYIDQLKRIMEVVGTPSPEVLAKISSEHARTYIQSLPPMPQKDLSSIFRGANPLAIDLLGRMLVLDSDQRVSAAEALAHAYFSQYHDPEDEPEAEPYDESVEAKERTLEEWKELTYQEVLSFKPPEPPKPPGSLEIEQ
Chain of human kinome (Homo sapiens, UniProt Q86YV6) (Q86YV6 whole entry): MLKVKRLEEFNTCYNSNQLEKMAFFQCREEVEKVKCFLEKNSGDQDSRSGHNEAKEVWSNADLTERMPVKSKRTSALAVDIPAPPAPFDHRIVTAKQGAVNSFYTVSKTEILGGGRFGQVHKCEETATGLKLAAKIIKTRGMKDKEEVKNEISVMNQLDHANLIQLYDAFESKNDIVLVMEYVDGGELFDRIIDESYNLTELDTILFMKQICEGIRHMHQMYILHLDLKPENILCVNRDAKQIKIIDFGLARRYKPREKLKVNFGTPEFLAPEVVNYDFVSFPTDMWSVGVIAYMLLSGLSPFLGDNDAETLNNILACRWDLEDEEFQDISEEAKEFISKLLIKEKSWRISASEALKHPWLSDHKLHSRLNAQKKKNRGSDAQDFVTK
Chain of human kinome (Homo sapiens, UniProt Q9UBE8) (Q9UBE8 whole entry): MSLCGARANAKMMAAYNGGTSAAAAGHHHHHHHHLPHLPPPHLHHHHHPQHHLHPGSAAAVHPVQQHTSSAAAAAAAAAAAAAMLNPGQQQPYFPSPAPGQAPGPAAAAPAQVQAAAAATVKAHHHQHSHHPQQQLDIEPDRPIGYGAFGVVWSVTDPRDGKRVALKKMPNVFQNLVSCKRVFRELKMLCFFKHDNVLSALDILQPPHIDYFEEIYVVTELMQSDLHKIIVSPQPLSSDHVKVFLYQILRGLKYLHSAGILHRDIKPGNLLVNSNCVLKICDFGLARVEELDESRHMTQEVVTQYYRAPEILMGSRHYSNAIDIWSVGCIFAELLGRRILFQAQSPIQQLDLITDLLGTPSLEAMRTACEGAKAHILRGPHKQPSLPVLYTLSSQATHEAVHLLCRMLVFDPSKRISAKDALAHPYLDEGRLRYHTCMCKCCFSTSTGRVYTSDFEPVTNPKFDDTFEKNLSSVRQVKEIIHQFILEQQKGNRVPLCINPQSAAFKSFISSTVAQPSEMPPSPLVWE
Chain of human kinome (Homo sapiens, UniProt Q16539) (Q16539 whole entry): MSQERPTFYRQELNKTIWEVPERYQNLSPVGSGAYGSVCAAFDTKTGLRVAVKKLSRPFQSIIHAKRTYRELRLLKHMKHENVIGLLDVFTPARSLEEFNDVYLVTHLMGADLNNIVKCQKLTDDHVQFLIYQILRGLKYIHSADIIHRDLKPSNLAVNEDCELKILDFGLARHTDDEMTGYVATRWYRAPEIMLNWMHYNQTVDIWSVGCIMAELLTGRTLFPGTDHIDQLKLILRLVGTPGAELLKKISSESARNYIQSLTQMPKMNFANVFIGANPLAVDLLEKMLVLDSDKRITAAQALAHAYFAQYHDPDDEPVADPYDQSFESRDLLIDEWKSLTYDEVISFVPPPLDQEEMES
Chain of human kinome (Homo sapiens, UniProt P04049) (P04049 whole entry): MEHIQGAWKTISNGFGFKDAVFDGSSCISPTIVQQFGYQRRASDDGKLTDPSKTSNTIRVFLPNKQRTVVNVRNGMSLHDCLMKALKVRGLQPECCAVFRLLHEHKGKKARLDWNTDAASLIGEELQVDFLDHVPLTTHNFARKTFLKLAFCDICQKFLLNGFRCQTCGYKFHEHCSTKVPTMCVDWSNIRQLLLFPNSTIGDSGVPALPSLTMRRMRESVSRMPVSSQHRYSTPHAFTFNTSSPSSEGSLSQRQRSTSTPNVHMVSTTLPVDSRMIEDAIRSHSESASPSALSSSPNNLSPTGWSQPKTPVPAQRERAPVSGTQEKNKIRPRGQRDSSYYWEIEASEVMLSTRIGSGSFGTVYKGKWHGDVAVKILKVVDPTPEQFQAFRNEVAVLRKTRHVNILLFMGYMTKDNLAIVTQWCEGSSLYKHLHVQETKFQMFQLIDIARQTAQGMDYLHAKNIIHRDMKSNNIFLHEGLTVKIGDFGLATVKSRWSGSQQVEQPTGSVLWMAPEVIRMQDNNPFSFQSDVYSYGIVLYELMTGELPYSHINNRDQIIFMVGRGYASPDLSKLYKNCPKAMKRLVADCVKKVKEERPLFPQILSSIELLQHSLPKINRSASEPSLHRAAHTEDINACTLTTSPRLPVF
Chain of human kinome (Homo sapiens, UniProt O15264) (O15264 whole entry): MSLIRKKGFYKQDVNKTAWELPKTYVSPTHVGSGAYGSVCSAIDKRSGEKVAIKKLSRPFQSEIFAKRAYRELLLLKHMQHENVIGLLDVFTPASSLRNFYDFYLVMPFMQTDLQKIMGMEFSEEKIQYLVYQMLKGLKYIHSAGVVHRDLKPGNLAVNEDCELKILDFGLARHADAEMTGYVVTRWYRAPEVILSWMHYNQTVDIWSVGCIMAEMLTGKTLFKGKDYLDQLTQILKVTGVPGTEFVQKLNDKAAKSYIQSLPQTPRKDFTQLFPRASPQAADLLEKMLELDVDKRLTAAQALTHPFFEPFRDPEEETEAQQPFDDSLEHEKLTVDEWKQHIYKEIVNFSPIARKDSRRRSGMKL
Chain of human kinome (Homo sapiens, UniProt Q96PN8) (Q96PN8 whole entry): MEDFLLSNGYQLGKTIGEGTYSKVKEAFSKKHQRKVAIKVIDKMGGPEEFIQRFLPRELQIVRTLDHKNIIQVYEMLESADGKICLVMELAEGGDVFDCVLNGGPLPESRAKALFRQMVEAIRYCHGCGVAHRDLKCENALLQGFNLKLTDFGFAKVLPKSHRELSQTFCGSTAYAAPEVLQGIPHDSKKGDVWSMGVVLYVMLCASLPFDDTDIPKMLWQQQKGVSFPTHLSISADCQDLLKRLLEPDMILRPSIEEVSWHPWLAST
Chain of human kinome (Homo sapiens, UniProt P23443) (P23443 whole entry): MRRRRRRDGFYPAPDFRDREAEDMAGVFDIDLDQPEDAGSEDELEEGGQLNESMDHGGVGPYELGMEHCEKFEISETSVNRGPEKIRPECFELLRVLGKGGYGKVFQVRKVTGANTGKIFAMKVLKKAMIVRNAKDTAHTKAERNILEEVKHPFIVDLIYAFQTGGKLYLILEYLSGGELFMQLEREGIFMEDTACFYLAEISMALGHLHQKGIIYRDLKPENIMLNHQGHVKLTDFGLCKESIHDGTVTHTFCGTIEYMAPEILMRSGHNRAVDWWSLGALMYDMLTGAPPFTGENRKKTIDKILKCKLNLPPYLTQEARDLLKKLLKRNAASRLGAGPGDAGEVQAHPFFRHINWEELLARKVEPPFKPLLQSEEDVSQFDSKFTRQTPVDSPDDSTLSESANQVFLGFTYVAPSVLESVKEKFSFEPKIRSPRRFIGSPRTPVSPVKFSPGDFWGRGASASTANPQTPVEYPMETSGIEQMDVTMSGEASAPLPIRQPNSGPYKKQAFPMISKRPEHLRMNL

`COc1cc(F)ccc1-c1cc(Nc2cc(CS(C)(=N)=O)ccn2)ncc1F` (centres unmarked) [VIP152] showed a remaining binding at 1 µM (human kinome [1]; kinase p38-delta (Entrez MAPK13), compound concentration 1000 nM) of 98%, a remaining binding at 0.1 µM (human kinome [1]; p38-delta (Entrez MAPK13), 100 nM) of 100% and a remaining binding at 0.1 µM (human kinome [2]) of 100%. For the same compound, the remaining binding at 0.1 µM (human kinome [3]) was 100%, the remaining binding at 0.1 µM (human kinome [4]; RAF1, 100 nM) was 100% and the remaining binding at 1 µM (human kinome [4]; kinase RAF1 (Entrez RAF1), compound concentration 1000 nM) was 96%. It also gave a remaining binding at 0.1 µM (human kinome [5]) of 79%, a remaining binding at 0.1 µM (human kinome [6]) of 100% and a remaining binding at 1 µM (human kinome [7]) of 100%. It also gave a remaining binding at 0.1 µM (human kinome [8]) of 92%, a remaining binding at 0.1 µM (human kinome [9]) of 100% and a remaining binding at 0.1 µM (human kinome [10]) of 100%. For the same compound, the remaining binding at 0.1 µM (human kinome [11]; PIK3CB, 100 nM) was 100%, the remaining binding at 1 µM (human kinome [11]; kinase PIK3CB (Entrez PIK3CB), compound concentration 1000 nM) was 100% and the remaining binding at 0.1 µM (human kinome [12]) was 98%. For the same compound, the remaining binding at 0.1 µM (human kinome [13]) was 100%, the remaining binding at 0.1 µM (human kinome [14]) was 100% and the remaining binding at 0.1 µM (human kinome [15]) was 100%. The remaining binding at 1 µM (human kinome [16]; kinase p38-beta (Entrez MAPK11), compound concentration 1000 nM) was 100%, the remaining binding at 0.1 µM (human kinome [16]; p38-beta (Entrez MAPK11), 100 nM) was 100% and the remaining binding at 1 µM (human kinome [17]; kinase p38-alpha (Entrez MAPK14), compound concentration 1000 nM) was 100%. The remaining binding at 0.1 µM (human kinome [17]; p38-alpha (Entrez MAPK14), 100 nM) was 100%, the remaining binding at 0.1 µM (human kinome [18]) was 100% and the remaining binding at 0.1 µM (human kinome [19]; MYLK4, 100 nM) was 100%. The remaining binding at 1 µM (human kinome [19]; kinase MYLK4 (Entrez MYLK4), compound concentration 1000 nM) was 89%, the remaining binding at 0.1 µM (human kinome [20]) was 100% and the remaining binding at 1 µM (human kinome [21]) was 100%. For the same compound, the remaining binding at 0.1 µM (human kinome [22]; MYO3A, 100 nM) was 100%, the remaining binding at 1 µM (human kinome [22]; kinase MYO3A (Entrez MYO3A), compound concentration 1000 nM) was 90% and the remaining binding at 0.1 µM (human kinome [23]) was 94%. It also gave a remaining binding at 0.1 µM (human kinome [24]) of 100%, a remaining binding at 1 µM (human kinome [25]) of 76% and a remaining binding at 0.1 µM (human kinome [26]; NEK6, 100 nM) of 100%. For the same compound, the remaining binding at 1 µM (human kinome [26]; kinase NEK6 (Entrez NEK6), compound concentration 1000 nM) was 93%, the remaining binding at 0.1 µM (human kinome [27]; NLK, 100 nM) was 100% and the remaining binding at 1 µM (human kinome [27]; kinase NLK (Entrez NLK), compound concentration 1000 nM) was 59%. It also gave a remaining binding at 0.1 µM (human kinome [28]) of 100% and a remaining binding at 0.1 µM (human kinome [29]) of 98%.
